Where two headings read alike, the source gives them in different places.
Key:
[1] = target: T1, Human recombinant PDE2A (hPDE2A) (Homo sapiens, UniProt O00408); assay: In vitro assay PDE2A (SPA, 3H-cGMP hydrolysis); type: biochemical; details: for Emax: read-out: hPDE2A Emax
T1 construct: His tag (inferred from metal chelate purification); made in house; host or cells: Sf9 insect cells (baculovirus)

[2] = target: T2, Human recombinant PDE3A (hPDE3A) (Homo sapiens, UniProt Q14432); assay: In vitro assay PDE3A (SPA, 3H-cAMP hydrolysis); type: biochemical; details: for IC50: hPDE3B pIC50, read-out: pIC50 (converted); for Emax: read-out: hPDE3B Emax;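 for all read-outs here: the method names PDE3A and the table heading PDE3B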
T2 construct: purchased Scottish Biomedical; host or cells: Sf9 insect cells
How it was run: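 Human PDE3A, cloned from brain, as partially purified Sf9 lysate. Substrate 0.4 μM cAMP plus [3H]-cAMP (2.4 μCi/ml final) in 50 mM Tris pH 7.8, 8.3 mM MgCl2, 1.7 mM EGTA, 60 min at room temperature, 1% DMSO final. Hydrolysis read by SPA scintillation counting against no-enzyme blanks and DMSO controls.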

[3] = target: T3, Human recombinant PDE10A (hPDE10A) (Homo sapiens, UniProt Q9Y233); assay: In vitro assay PDE10A, human clone (SPA, 3H-cAMP hydrolysis); type: biochemical
T3 construct: His tag (inferred from metal chelate purification); made in house; host or cells: Sf9 insect cells (baculovirus)
How it was run: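 Human recombinant PDE10A was expressed in Sf9 cells via baculovirus and incubated with compound in 50 mM Tris pH 7.8, 8.3 mM MgCl2, 1.7 mM EGTA. Substrate was 60 nM cAMP plus 0.008 μCi 3H-cAMP for 60 min at room temperature, read by SPA scintillation counting. Controls used 1% DMSO, and blanks omitted enzyme.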

PDE2A = target: T4, PDE2A (Rattus norvegicus, UniProt Q01062); assay: PDE2 occupancy by test compounds, ex-vivo autoradiography with [3H]B-17a; type: in vivo, Male Wistar rats; details: for receptor occupancy at 10 mg/kg: percentage receptor occupancy, ex-vivo autoradiography, striatum; for ED50: read-out: PDE Occupancy ED50
T4 construct: Twenty μm-thick striatal sections were cut; from tissue; host or cells: rat brain, striatal sections
T4 sequence (Q01062 1-928): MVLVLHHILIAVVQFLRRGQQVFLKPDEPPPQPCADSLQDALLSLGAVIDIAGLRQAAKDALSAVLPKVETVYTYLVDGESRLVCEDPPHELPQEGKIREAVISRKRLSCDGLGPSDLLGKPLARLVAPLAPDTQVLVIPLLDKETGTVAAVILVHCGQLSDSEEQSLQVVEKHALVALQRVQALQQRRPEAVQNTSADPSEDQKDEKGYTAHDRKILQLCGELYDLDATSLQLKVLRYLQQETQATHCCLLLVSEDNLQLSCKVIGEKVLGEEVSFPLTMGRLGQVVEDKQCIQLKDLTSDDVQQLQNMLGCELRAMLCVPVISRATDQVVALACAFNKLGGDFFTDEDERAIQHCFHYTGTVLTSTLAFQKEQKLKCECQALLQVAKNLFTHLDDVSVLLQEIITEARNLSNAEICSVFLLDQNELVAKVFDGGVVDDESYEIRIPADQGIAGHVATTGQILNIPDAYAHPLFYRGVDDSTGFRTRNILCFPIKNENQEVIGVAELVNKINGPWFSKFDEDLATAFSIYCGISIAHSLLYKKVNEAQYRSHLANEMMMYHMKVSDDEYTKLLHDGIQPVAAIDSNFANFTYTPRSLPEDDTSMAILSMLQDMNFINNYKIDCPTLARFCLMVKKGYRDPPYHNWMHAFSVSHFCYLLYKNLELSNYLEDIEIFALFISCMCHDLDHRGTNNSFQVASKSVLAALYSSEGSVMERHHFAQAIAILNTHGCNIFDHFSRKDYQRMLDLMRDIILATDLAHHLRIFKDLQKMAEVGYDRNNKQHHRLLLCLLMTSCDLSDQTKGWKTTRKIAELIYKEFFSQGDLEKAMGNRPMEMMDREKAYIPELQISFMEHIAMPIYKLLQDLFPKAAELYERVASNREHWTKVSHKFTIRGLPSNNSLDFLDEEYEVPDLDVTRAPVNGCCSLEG

[4] = human recombinant PDE2A, 10 μM cGMP substrate, read-out: hPDE2A pIC50 (converted)
[5] = read-out: hPDE2A pIC50 (converted)
[6] = human clone (h), default, read-out: hPDE10A2 Emax
[7] = human clone (h), default, read-out: hPDE10A2 pIC50 (converted)
[8] = human clone by default (no (r) mark), read-out: hPDE10A2 or rPDE10A2 Emax
[9] = human clone by default (no (r) mark), read-out: hPDE10A2 or rPDE10A2 pIC50 (converted)
[10] = route PO (oral), drug dose producing 50% receptor occupancy

T2 sequence (Q14432 whole entry): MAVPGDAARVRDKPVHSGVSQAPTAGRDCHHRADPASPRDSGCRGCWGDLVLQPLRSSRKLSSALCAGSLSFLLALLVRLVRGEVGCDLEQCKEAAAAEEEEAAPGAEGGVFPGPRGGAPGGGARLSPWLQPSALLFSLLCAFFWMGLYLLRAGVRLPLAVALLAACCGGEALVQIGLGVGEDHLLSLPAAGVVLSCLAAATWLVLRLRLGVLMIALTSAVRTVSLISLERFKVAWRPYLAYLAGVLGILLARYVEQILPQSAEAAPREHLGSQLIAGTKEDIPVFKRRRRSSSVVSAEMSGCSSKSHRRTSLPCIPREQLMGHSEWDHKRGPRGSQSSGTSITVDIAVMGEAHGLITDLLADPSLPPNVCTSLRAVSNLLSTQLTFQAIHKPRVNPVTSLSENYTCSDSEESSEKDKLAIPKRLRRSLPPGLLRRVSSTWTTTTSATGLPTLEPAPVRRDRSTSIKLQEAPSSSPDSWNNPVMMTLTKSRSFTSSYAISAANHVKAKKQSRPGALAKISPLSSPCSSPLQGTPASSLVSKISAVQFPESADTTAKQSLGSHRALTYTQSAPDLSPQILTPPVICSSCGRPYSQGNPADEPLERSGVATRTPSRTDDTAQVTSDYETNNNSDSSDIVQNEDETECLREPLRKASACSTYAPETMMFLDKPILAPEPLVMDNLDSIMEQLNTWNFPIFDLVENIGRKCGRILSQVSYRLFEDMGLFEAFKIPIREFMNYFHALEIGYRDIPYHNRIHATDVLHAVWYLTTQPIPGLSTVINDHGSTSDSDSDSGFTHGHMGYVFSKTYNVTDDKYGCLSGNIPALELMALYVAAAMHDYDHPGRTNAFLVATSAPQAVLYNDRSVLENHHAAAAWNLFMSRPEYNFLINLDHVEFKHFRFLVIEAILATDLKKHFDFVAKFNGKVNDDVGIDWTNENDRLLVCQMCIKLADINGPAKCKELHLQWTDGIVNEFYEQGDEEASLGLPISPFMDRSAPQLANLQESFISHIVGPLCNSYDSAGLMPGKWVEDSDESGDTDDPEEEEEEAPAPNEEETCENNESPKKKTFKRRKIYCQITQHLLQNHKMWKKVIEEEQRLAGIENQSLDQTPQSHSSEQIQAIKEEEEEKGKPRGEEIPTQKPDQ
T3 sequence (Q9Y233 267-1055): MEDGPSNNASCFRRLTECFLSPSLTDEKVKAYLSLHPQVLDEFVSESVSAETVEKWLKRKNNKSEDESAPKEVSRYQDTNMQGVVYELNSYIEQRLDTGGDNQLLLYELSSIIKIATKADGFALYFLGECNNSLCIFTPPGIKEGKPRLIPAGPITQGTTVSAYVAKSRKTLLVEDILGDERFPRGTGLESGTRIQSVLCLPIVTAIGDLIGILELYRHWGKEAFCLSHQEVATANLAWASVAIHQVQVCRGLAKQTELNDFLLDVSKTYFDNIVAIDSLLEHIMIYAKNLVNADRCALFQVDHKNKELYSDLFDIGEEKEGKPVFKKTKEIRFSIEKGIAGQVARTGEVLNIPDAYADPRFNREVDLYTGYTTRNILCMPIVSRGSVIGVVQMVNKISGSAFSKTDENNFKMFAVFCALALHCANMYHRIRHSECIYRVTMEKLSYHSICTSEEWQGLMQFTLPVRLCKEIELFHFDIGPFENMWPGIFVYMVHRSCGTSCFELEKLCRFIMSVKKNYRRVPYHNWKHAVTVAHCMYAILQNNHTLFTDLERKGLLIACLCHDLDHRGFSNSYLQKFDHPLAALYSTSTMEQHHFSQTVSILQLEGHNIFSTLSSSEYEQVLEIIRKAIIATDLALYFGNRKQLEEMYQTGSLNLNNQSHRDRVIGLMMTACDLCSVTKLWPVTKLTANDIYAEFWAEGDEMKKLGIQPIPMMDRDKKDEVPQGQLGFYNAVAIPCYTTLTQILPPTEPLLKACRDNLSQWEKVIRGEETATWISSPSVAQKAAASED
T1 sequence (O00408 whole entry): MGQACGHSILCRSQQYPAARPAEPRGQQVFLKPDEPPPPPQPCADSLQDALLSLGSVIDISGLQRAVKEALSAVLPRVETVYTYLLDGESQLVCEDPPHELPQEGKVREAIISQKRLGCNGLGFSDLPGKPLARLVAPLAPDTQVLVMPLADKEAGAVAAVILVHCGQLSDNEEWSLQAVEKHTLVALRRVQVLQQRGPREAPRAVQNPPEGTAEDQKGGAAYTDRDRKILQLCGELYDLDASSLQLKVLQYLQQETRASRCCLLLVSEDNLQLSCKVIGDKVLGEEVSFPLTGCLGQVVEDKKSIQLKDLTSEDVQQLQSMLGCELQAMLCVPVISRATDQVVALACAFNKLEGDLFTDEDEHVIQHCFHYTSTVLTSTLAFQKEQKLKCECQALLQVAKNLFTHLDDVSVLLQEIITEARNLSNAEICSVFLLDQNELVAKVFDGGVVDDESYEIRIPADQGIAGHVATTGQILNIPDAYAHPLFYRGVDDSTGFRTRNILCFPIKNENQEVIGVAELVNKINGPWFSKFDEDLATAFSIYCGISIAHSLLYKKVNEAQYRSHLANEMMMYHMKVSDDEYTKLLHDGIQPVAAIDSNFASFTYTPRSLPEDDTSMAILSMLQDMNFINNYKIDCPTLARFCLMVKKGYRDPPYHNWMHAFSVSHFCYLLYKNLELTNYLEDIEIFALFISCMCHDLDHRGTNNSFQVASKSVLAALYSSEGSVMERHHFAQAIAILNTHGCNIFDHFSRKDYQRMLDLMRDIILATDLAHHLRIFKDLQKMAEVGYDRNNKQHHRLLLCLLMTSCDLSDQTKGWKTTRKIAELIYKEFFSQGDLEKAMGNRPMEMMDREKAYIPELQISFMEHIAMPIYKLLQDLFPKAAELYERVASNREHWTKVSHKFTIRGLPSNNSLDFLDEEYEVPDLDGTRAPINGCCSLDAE

| IC50 [1, 4] [nM] | Emax ([1]; human recombinant PDE2A) [%] | Emax [1] [%] | IC50 [1, 5] [nM] | IC50 [2] [nM] | Emax ([2]; read-out: Emax) [%] | Emax [3, 6] [%] | IC50 [3, 7] [nM] | receptor occupancy at 10 mg/kg (PDE2A; sc, route SC (subcutaneous)) [%] | receptor occupancy at 10 mg/kg (PDE2A; po, route PO (oral)) [%] | Emax [3, 8] [%] | IC50 [3, 9] [nM] | ED50 (PDE2A; [10]) [mg/kg] | SMILES | IC50 ([1]; hPDE2A pIC50) [nM] | IC50 ([1]; hPDE2A pIC50, human recombinant PDE2A, 10 μM cGMP substrate) [nM] | hPDE2A Emax [1] | Emax [2] [%] | ED50 (PDE2A; po) [mg/kg] | receptor occupancy at 10 mg/kg (PDE2A; route SC (subcutaneous)) [%] | receptor occupancy at 10 mg/kg (PDE2A; route PO (oral)) [%] |
| --- | --- | --- | --- | --- | --- | --- | --- | --- | --- | --- | --- | --- | --- | --- | --- | --- | --- | --- | --- | --- |
| 8.51 | 99 | 99 | 8.51 | 1550 | 87 | 98 | 209 | 2 |  |  |  |  | Cc1nc2cc(C(=O)N3CC[C@@H](C)[C@H](c4cc(C(F)F)nc5ncnn45)C3)ccc2o1 [Compound 188] |  |  |  |  |  |  |  |
| 5.89 | 100 | 100 | 5.89 | 3470 | 76 | 98 | 138 | -3 | -11 |  |  |  | C[C@@H]1CCN(C(=O)c2ccc(F)c(OC(F)F)c2)C[C@H]1c1cc(C(F)F)nc2ncnn12 [Compound 193] |  |  |  |  |  |  |  |
| 4.47 | 98 | 98 | 4.47 | 5620 | 70 | 93 | 372 | -13 | -7 |  |  |  | COc1cc(C(=O)N2CC[C@@H](C)[C@H](c3cc(C(F)F)nc4ncnn34)C2)ccc1F [Compound 195] |  |  |  |  |  |  |  |
| 23.4 | 99 | 99 | 23.4 | 4900 | 68 | 92 | 562 |  | 0 |  |  |  | COc1ccc(C(=O)N2CC[C@@H](C)[C@H](c3cc(C(F)F)nc4ncnn34)C2)cn1 [Compound 196] |  |  |  |  |  |  |  |
| 195 | 98 | 98 | 195 | > 10000 | 19 | 71 | 3470 |  | 19 | 71 | 3470 |  | Cc1nc(C(=O)N2CC[C@H](C)[C@H](c3cc(C(F)F)nc4ncnn34)C2)ccc1F [Compound 223] |  |  |  |  |  |  |  |
| 2.19 | 101 | 101 | 2.19 | 380 | 95 | 98 | 45.7 | 18 |  | 98 | 45.7 |  | C[C@@H]1CCN(C(=O)c2ccc3scnc3c2)C[C@H]1c1cc(C(F)F)nc2ncnn12 [Compound 227] |  |  |  |  |  |  |  |
| 1.35 | 97 | 97 | 1.35 | 9120 | 57 | 100 | 19.5 | -13 |  | 100 | 19.5 |  | C[C@@H]1CCN(C(=O)c2ccc(O)c(C#N)c2)C[C@H]1c1cc(C(F)F)nc2ncnn12 [Compound 231] |  |  |  |  |  |  |  |
|  |  | 101 | 0.708 | 3720 | 78 | 93 | 692 |  | 22 | 93 | 692 | 24.2 | C[C@@H]1CCN(C(=O)c2cc(C3CC3)ncc2F)C[C@H]1c1cc(C(F)F)nc2ncnn12 [Compound 269] |  |  |  |  |  |  |  |
|  |  | 102 | 2.19 | 8910 | 54 | 93 | 794 |  | 3 | 93 | 794 |  | COc1ncc(C)cc1C(=O)N1CC[C@@H](C)[C@H](c2cc(C(F)F)nc3ncnn23)C1 [Compound 272] |  |  |  |  |  |  |  |
|  |  | 99 | 0.933 | 708 | 97 |  |  |  | 30 | 99 | 145 |  | Cc1cc(C(=O)N2CC[C@@H](C)[C@H](c3cc(C(F)F)nc4ncnn34)C2)c(F)c(C2CC2)n1 [Compound 278] |  |  |  |  |  |  |  |
|  |  | 101 | 1.7 | 1260 | 89 |  |  |  | 16 | 98 | 55 |  | COc1cc(C(=O)N2CC[C@@H](C)[C@H](c3cc(C(F)F)nc4ncnn34)C2)cc(OC)n1 [Compound 284] |  |  |  |  |  |  |  |

Continued, compound first:

| SMILES | IC50 [1, 4] [nM] | Emax ([1]; human recombinant PDE2A) [%] | Emax [1] [%] | IC50 [1, 5] [nM] | IC50 [2] [nM] | Emax ([2]; read-out: Emax) [%] | Emax [3, 6] [%] | IC50 [3, 7] [nM] | receptor occupancy at 10 mg/kg (PDE2A; sc, route SC (subcutaneous)) [%] | receptor occupancy at 10 mg/kg (PDE2A; po, route PO (oral)) [%] | Emax [3, 8] [%] | IC50 [3, 9] [nM] | ED50 (PDE2A; [10]) [mg/kg] | IC50 ([1]; hPDE2A pIC50) [nM] | IC50 ([1]; hPDE2A pIC50, human recombinant PDE2A, 10 μM cGMP substrate) [nM] | hPDE2A Emax [1] | Emax [2] [%] | ED50 (PDE2A; po) [mg/kg] | receptor occupancy at 10 mg/kg (PDE2A; route SC (subcutaneous)) [%] | receptor occupancy at 10 mg/kg (PDE2A; route PO (oral)) [%] |
| --- | --- | --- | --- | --- | --- | --- | --- | --- | --- | --- | --- | --- | --- | --- | --- | --- | --- | --- | --- | --- |
| C[C@@H]1CCN(C(=O)c2cc(F)cc(C#N)c2)C[C@H]1c1cc(C(F)F)nc2ncnn12 [Compound 190] |  |  | 100 |  | > 10000 | 39 | 96 | 158 |  | 1 |  |  |  | 10.2 | 10.2 |  |  |  |  |  |
| C[C@@H]1CCN(C(=O)c2cccc(C#N)c2)C[C@H]1c1cc(C(F)F)nc2ncnn12 [Compound 197] | 10.2 | 98 | 98 | 10.2 | > 10000 | 42 | 96 | 209 |  | 8 |  |  |  |  |  |  |  |  |  |  |
| Cc1cc(C(=O)N2CC[C@H](C)[C@@H](c3cc(C(F)F)nc4ncnn34)C2)cc(C)n1 [Compound 220] |  |  |  |  | > 10000 |  |  |  |  | -8 | 41 | > 10000 |  | 302 |  | 54 | 8 | > 80 |  |  |
| COc1cccc2c1OCC(C(=O)N1CC[C@@H](C)[C@H](c3cc(C(F)F)nc4ncnn34)C1)=C2 [Compound 267] |  |  | 102 | 0.398 | 61.7 | 100 | 99 | 11.2 |  | 59 | 99 | 11.2 | 11 |  |  |  |  |  |  |  |
| Cc1c(C(=O)N2[C@H]3CC[C@H](c4cc(C(F)F)nc5ncnn45)[C@@H]2CC3)oc2ccccc12 [Compound 273] |  |  | 100 | 2.34 | 813 | 96 | 96 | 977 |  |  | 96 | 977 |  |  |  |  |  |  | 65 |  |
| Cc1cc(C(=O)N2CC[C@@H](C)[C@H](c3cc(C)nc4ncnn34)C2)cc(OC(F)F)n1 [Compound 275] |  |  | 100 | 2.82 | 977 | 92 |  |  |  | 23 | 100 | 28.8 |  |  |  |  |  |  |  |  |
| C[C@@H]1CCN(C(=O)c2cc(C3CC3)ncc2F)C[C@@]1(F)c1cc(C(F)F)nc2ncnn12 [Compound 277] |  |  | 99 | 75.9 | > 10000 | 14 |  |  |  | -4 | 27 | > 10000 |  |  |  |  |  |  |  |  |
| Cc1cc([C@@H]2CN(C(=O)c3cc(C4CC4)ncc3C(F)(F)F)CC[C@H]2C)n2ncnc2n1 [Compound 283] |  |  | 100 | 8.51 | > 10000 | 38 |  |  |  | -12 | 98 | 178 |  |  |  |  |  |  |  |  |
| Cc1cc(C(=O)N2[C@H]3CC[C@H](c4cc(C(F)F)nc5ncnn45)[C@@H]2CC3)cc(C(F)(F)F)n1 [Compound 286] |  |  | 101 | 6.92 | > 10000 | 14 |  |  |  |  | 79 | 2240 |  |  |  |  |  |  |  | 5 |
